From patent publication US20260256792A1, “TREATMENT OF CHRONIC SPONTANEOUS URTICARIA BY ADMINISTERING (R)-2-[3-[4-AMINO-3-(2-FLUORO-4-PHENOXY-PHENYL)PYRAZOLO[3,4-D]PYRIMIDIN-1-YL]PIPERIDINE-1-CARBONYL]-4-METHYL-4-[4-(OXETAN-3-YL)PIPERAZIN-1-YL]PENT-2-ENENITRILE” (priority 2023, published 2026)

Test system: angioedema in CSU patients
Test: Phase 2 CSU study: angioedema activity score over 7 days (AAS7)
Assay type: in vivo, human
Design: AAS7, Median / AAS7 Change from baseline, Median: scale not given here
Conditions: for Non-responder n (%), AAS7 = 0 / OR (95% CI) for rilzabrutinib vs. placebo, AAS7 = 0 / RRD (%) for rilzabrutinib vs. placebo (95% CI), AAS7 = 0 / Responder n (%), AAS7 = 0: outlier removed
Excerpt: The study comprises a 12 week, randomized, double-blind, placebo-controlled, multi-center, dose-ranging efficacy and safety phase, followed by a 40 week open label extension (OLE) phase (see FIG. 1). The study consists of three phases and an optional OLE phase. […] The weekly angioedema activity score (AAS7) was proposed as a tertiary endpoint. […] Patients were to complete the AAS using the e-diary. The e-diary was to be used once daily on the same time of each day recording of participant's answers to the angioedema activity score over 7 days (AAS7) questionnaire.

[1] = 400 mg TID, Week 8, omalizumab-naïve, angioedema at baseline
[2] = 400 mg TID, Week 9, ITT, angioedema at baseline
[3] = 400 mg TID, Week 9, omalizumab-naïve
[4] = 400 mg TID, Week 9, omalizumab-naïve, angioedema at baseline
[5] = 400 mg TID, Week 10, ITT, angioedema at baseline
[6] = 400 mg TID, Week 10, omalizumab-naïve
[7] = 400 mg TID, Week 10, omalizumab-naïve, angioedema at baseline
[8] = 400 mg TID, Week 11, ITT, angioedema at baseline
[9] = 400 mg TID, Week 11, omalizumab-naïve
[10] = 400 mg TID, Week 11, omalizumab-naïve, angioedema at baseline
[11] = 400 mg TID, Week 12, ITT, angioedema at baseline
[12] = 400 mg TID, Week 12, omalizumab-naïve
[13] = 400 mg TID, Week 12, omalizumab-naïve, angioedema at baseline
[14] = 400 mg TID, omalizumab-naïve population, angioedema at baseline
[15] = End of Study, 400 mg TID, Incomplete Responders with angioedema at baseline, both values imputed
[16] = Omalizumab-Naïve Population, 400 mg BID, End of Study
[17] = Omalizumab-Naïve Population, 400 mg BID, Week 1
[18] = Omalizumab-Naïve Population, 400 mg BID, Week 2
[19] = Omalizumab-Naïve Population, 400 mg BID, Week 3
[20] = Omalizumab-Naïve Population, 400 mg BID, Week 4
[21] = Omalizumab-Naïve Population, 400 mg BID, Week 5
[22] = Omalizumab-Naïve Population, 400 mg BID, Week 6
[23] = Omalizumab-Naïve Population, 400 mg BID, Week 7
[24] = Omalizumab-Naïve Population, 400 mg BID, Week 8
[25] = Omalizumab-Naïve Population, 400 mg BID, Week 9

## CC(C)(C=C(C#N)C(=O)N1CCC[C@@H](n2nc(-c3ccc(Oc4ccccc4)cc3F)c3c(N)ncnc32)C1)N1CCN(C2COC2)CC1 [rilzabrutinib, (R)-2-[3-[4-amino-3-(2-fluoro-4-phenoxy-phenyl)pyrazolo[3,4-d]pyrimidin-1-yl]piperidine-1-carbonyl]-4-methyl-4-[4-(oxetan-3-yl)piperazin-1-yl]pent-2-enenitrile]
[1]
  AAS7 = 0, OR (95% CI) for rilzabrutinib vs. placebo: 0.690
  AAS7 = 0, RRD (%) for rilzabrutinib vs. placebo (95% CI): −6.2 %
  AAS7 Post-baseline Mean (SD): 12.20 (13.05)
  Participants with AAS7 = 0, Responder n (%): 6 (26.1) n (%)
[2]
  AAS7 % Change difference for rilzabrutinib vs. placebo LS Mean (95% CI): −34.54 (−64.85, −4.23) %
  AAS7 Change difference for rilzabrutinib vs. placebo LS Mean (95% CI): −13.12 (−23.93, −2.31)
  AAS7 Change from baseline LS Mean (SE): −42.57 (4.09)
  AAS7 Post-baseline Mean (SD): 7.98 (11.59)
[3]
  Non-responder n (%), AAS7 = 0: 15 (44.1) n (%)
  OR (95% CI) for rilzabrutinib vs. placebo, AAS7 = 0: 1.155
  RRD (%) for rilzabrutinib vs. placebo (95% CI), AAS7 = 0: 3.6 %
  Responder n (%), AAS7 = 0: 19 (55.9) n (%)
[4]
  AAS7 % Change difference for rilzabrutinib vs. placebo LS Mean (95% CI): −37.56 (−71.28, −3.83) %
  AAS7 % Change from baseline LS Mean (SE): −84.73 (12.57) %
  AAS7 = 0, Non-responder n (%): 13 (56.5) n (%)
  AAS7 = 0, OR (95% CI) for rilzabrutinib vs. placebo: 1.358
  AAS7 = 0, RRD (%) for rilzabrutinib vs. placebo (95% CI): 6.9 %
  AAS7 Post-baseline Mean (SD): 8.52 (12.19)
  Participants with AAS7 = 0, Responder n (%): 10 (43.5) n (%)
[5]
  AAS7 % Change difference for rilzabrutinib vs. placebo LS Mean (95% CI): −38.35 (−79.56, 2.86) %
  AAS7 % Change from baseline LS Mean (SE): −87.33 (15.54) %
  AAS7 Change difference for rilzabrutinib vs. placebo LS Mean (95% CI): −13.07 (−24.96, −1.18)
  AAS7 Change from baseline LS Mean (SE): −43.40 (4.49)
  AAS7 Post-baseline Mean (SD): 7.10 (9.58)
[6]
  Non-responder n (%), AAS7 = 0: 16 (47.1) n (%)
  RRD (%) for rilzabrutinib vs. placebo (95% CI), AAS7 = 0: 6.0 %
  Responder n (%), AAS7 = 0: 18 (52.9) n (%)
[7]
  AAS7 % Change from baseline LS Mean (SE): −89.99 (16.85) %
  AAS7 = 0, Non-responder n (%): 13 (56.5) n (%)
  AAS7 = 0, OR (95% CI) for rilzabrutinib vs. placebo: 1.627
  AAS7 = 0, RRD (%) for rilzabrutinib vs. placebo (95% CI): 11.0 %
  AAS7 Post-baseline Mean (SD): 6.83 (9.73)
  Participants with AAS7 = 0, Responder n (%): 10 (43.5) n (%)
[8]
  AAS7 % Change difference for rilzabrutinib vs. placebo LS Mean (95% CI): −15.53 (−43.68, 12.62) %
  AAS7 Change difference for rilzabrutinib vs. placebo LS Mean (95% CI): −6.88 (−18.42, 4.67)
  AAS7 Change from baseline LS Mean (SE): −40.74 (4.34)
  AAS7 Post-baseline Mean (SD): 9.40 (13.36)
[9]
  Non-responder n (%), AAS7 = 0: 15 (44.1) n (%)
  OR (95% CI) for rilzabrutinib vs. placebo, AAS7 = 0: 1.142
  RRD (%) for rilzabrutinib vs. placebo (95% CI), AAS7 = 0: 3.1 %
  Responder n (%), AAS7 = 0: 19 (55.9) n (%)
[10]
  AAS7 = 0, Non-responder n (%): 13 (56.5) n (%)
  AAS7 = 0, OR (95% CI) for rilzabrutinib vs. placebo: 1.160
  AAS7 = 0, RRD (%) for rilzabrutinib vs. placebo (95% CI): 3.1 %
  AAS7 Post-baseline Mean (SD): 9.80 (13.81)
  Participants with AAS7 = 0, Responder n (%): 10 (43.5) n (%)
[11]
  AAS7 % Change difference for rilzabrutinib vs. placebo LS Mean (95% CI): −19.84 (−46.44, 6.76) %
  AAS7 % Change from baseline LS Mean (SE): −82.82 (10.03) %
  AAS7 Change difference for rilzabrutinib vs. placebo LS Mean (95% CI): −8.06 (−19.05, 2.94)
  AAS7 Change from baseline LS Mean (SE): −43.36 (4.14)
  AAS7 Post-baseline Mean (SD): 7.37 (12.64)
[12]
  patients with angioedema score (AAS7) of 0: 60.9%
  Non-responder n (%), AAS7 = 0: 12 (35.3) n (%)
  OR (95% CI) for rilzabrutinib vs. placebo, AAS7 = 0: 1.685
  RRD (%) for rilzabrutinib vs. placebo (95% CI), AAS7 = 0: 13.0 %
  Responder n (%), AAS7 = 0: 22 (64.7) n (%)
[13]
  AAS7 = 0, Non-responder n (%): 9 (39.1) n (%)
  AAS7 = 0, OR (95% CI) for rilzabrutinib vs. placebo: 3.085
  AAS7 = 0, RRD (%) for rilzabrutinib vs. placebo (95% CI): 29.7 %
  AAS7 Post-baseline Mean (SD): 7.10 (12.86)
  Participants with AAS7 = 0, Responder n (%): 14 (60.9) n (%)
[14]
  LS mean change from baseline in AAS7 at Week 12: −44.04
  decrease from baseline in AAS7 at Week 12: 84.63%
400 mg TID, within one week of initiating treatment, omalizumab-naïve
  patients achieving angioedema score (AAS7) of 0: 30.4%
[15]
  AAS7, Mean (SD): 30.42 (14.73)
  AAS7, Median: 30.42
  AAS7 Change from baseline, Mean (SD): 1.50 (2.12)
  AAS7 Change from baseline, Median: 1.50
  AAS7 Percent change from baseline, Median: 8.82
[16]
  AAS7, Mean (SD): 27.33 (24.01)
  AAS7, Median: 37.00
  AAS7 Change from baseline, Mean (SD): −38.33 (25.03)
  AAS7 Change from baseline, Median: −37.00
  AAS7 Percent change from baseline, Mean (SD): −57.91 (38.75) %
  AAS7 Percent change from baseline, Median: −50.00%
[17]
  AAS7 Change from baseline, Mean (SD): −21.44 (18.46)
  AAS7 Change from baseline, Median: −22.00
  AAS7 Percent change from baseline, Mean (SD): 62.04 (42.40) %
  AAS7 Percent change from baseline, Median: −82.71%
[18]
  AAS7, Median: 14.00
  AAS7 Change from baseline, Mean (SD): −22.60 (18.31)
  AAS7 Change from baseline, Median: −23.00
  AAS7 Percent change from baseline, Mean (SD): −45.07 (90.72) %
  AAS7 Percent change from baseline, Median: −77.03%
[19]
  AAS7, Median: 6.50
  AAS7 Change from baseline, Mean (SD): −30.63 (24.46)
  AAS7 Change from baseline, Median: −25.88
  AAS7 Percent change from baseline, Mean (SD): −45.93 (125.55) %
  AAS7 Percent change from baseline, Median: −89.45%
[20]
  AAS7 Change from baseline, Mean (SD): −30.05 (20.80)
  AAS7 Change from baseline, Median: −28.00
  AAS7 Percent change from baseline, Mean (SD): −53.69 (109.03) %
  AAS7 Percent change from baseline, Median: −82.09%
[21]
  AAS7, Median: 0.00
  AAS7 Change from baseline, Mean (SD): −30.86 (24.37)
  AAS7 Change from baseline, Median: −24.00
  AAS7 Percent change from baseline, Mean (SD): −66.40 (54.16) %
  AAS7 Percent change from baseline, Median: −100.00%
[22]
  AAS7, Median: 3.00
  AAS7 Change from baseline, Mean (SD): −31.58 (23.39)
  AAS7 Change from baseline, Median: −24.00
  AAS7 Percent change from baseline, Mean (SD): −70.72 (39.56) %
  AAS7 Percent change from baseline, Median: −92.19%
[23]
  AAS7, Median: 4.67
  AAS7 Change from baseline, Mean (SD): −33.54 (24.64)
  AAS7 Change from baseline, Median: −30.00
  AAS7 Percent change from baseline, Mean (SD): −68.05 (40.33) %
  AAS7 Percent change from baseline, Median: −88.60%
[24]
  AAS7, Median: 0.00
  AAS7 Change from baseline, Mean (SD): −36.21 (24.67)
  AAS7 Change from baseline, Median: −32.00
  AAS7 Percent change from baseline, Mean (SD): −74.90 (43.31) %
  AAS7 Percent change from baseline, Median: −100.00%
[25]
  AAS7, Median: 0.00
  AAS7 Change from baseline, Mean (SD): −34.83 (26.07)
  AAS7 Change from baseline, Median: −32.00
  AAS7 Percent change from baseline, Mean (SD): −67.10 (66.88) %
  AAS7 Percent change from baseline, Median: −100.00%
